Laboratory results taken from patent US20250144067A1, “PERSONALIZED STARVATION THERAPY FOR CANCER” (Faeth Therapeutics, Inc., priority 2021, published 2025).
Structures can show the parent of a compound that is named as a salt. Where two headings read alike, the source gives them in different places. Peptide text beside a SMILES is read from it.

What was measured:
[1] = system: NCI-H292 lung cancer cells; test: FDA drug screening, complete media vs cholesterol-free media without statin (TABLE 1); assay type: cell-based, human
[2] = system: NCI-H292 lung cancer cells; test: FDA drug screening, complete media vs cholesterol-free media with simvastatin (TABLE 2); assay type: cell-based, human
[3] = NCI-H292 cells, cholesterol-free media without statin, FDA drug library screen
[4] = NCI-H292 cells, complete media, FDA drug library screen
[5] = complete vs cholesterol-free media, >0 enhanced anti-cancer activity, about 0 neutral, <0 antagonist
[6] = NCI-H292 cells, cholesterol-free media with simvastatin 0.04 μM, cell growth value in FDA drug screen
[7] = NCI-H292 cells, complete media, cell growth value in FDA drug screen
[8] = complete media minus cholesterol-free media + simvastatin, >0 enhanced anti-cancer activity, about 0 neutral, <0 antagonist
[9] = Complete minus Cholesterol-free, >0 enhanced anti-cancer activity, about 0 neutral, <0 antagonist
[10] = NCI-H292 cells, cholesterol-free media with simvastatin 0.04 μM, FDA drug library screen (TABLE 2)
[11] = NCI-H292 cells, complete media, FDA drug library screen (TABLE 2)
[12] = complete media minus cholesterol-free media + simvastatin (0.04 μM), >0 enhanced anti-cancer activity, about 0 neutral, <0 antagonist
[13] = Complete minus Cholesterol-free, greater than 0 enhanced anti-cancer activity, about 0 neutral, below 0 antagonists
[14] = NCI-H292 cells in cholesterol-free media without statin
[15] = NCI-H292 cells in complete media
[16] = NCI-H292 cells, drug in cholesterol-free media with simvastatin 0.04 μM
[17] = NCI-H292 cells, drug in complete media
[18] = complete media vs cholesterol-free media + simvastatin (0.04 μM), >0 enhanced anti-cancer activity, about 0 neutral, <0 antagonist
[19] = Complete minus Cholesterol-free, […]
[20] = NCI-H292 cells, FDA drug library screen, cholesterol-free media without statin
[21] = NCI-H292 cells, FDA drug library screen, complete media
[22] = complete media minus cholesterol-free media + simvastatin (0.04 μM), […]
[23] = Complete minus Cholesterol-free, greater than 0 enhanced anti-cancer activity, about 0 neutral, below 0 antagonist
[24] = NCI-H292 cells, FDA drug library screen, cholesterol-free media with simvastatin 0.04 μM
[25] = NCI-H292 cells, cholesterol-free media without statin
[26] = NCI-H292 cells, FDA library drug in cholesterol-free media with simvastatin 0.04 μM
[27] = NCI-H292 cells, FDA library drug in complete media
[28] = NCI-H292 cells, cholesterol-free media with simvastatin 0.04 μM, […]
[29] = NCI-H292 cells, complete media, […]
[30] = complete media minus cholesterol-free media + simvastatin, […]

## NC[C@H]1O[C@H](O[C@H]2[C@H](O)[C@@H](O[C@H]3O[C@H](CO)[C@@H](O)[C@H](N)[C@H]3O)[C@H](N)C[C@@H]2N)[C@H](N)C[C@@H]1O [Tobramycin]
[1]; [3]
  Cholesterol-free: 1.416
[1]; [4]
  Complete: 1.802
[1]; [5]
  Difference: 0.39
[2]; [6]
  Cholesterol-free media + simvastatin (0.04 μM): 0.8625
[2]; [7]
  Complete Media: 0.9069
[2]; [8]
  Difference: 0.04

## COC(=O)[C@H](c1ccccc1Cl)N1CCc2sccc2C1 [Clopidogrel]
[1]; [9]
  Difference: −0.02
[1]; [3]
  Cholesterol-free: 0.9805
[1]; [4]
  Complete: 0.958
[2]; [10]
  Cholesterol-free media + simvastatin (0.04 μM): 1.038
[2]; [11]
  Complete Media: 0.969
[2]; [12]
  Difference: −0.07

## CC1Cc2ccccc2N1NC(=O)c1ccc(Cl)c(S(N)(=O)=O)c1 (centres unmarked) [Indapamide]
[1]; [13]
  Difference: −0.63
[1]; [14]
  Cholesterol-free: 1.388
[1]; [15]
  Complete: 0.7593
[2]; [16]
  Cholesterol-free media + simvastatin (0.04 μM): 1.217
[2]; [17]
  Complete Media: 0.9676
[2]; [18]
  Difference: −0.25

## CC(Cc1ccc(O)cc1)NCC(O)c1cc(O)cc(O)c1 (centres unmarked) [Fenoterol (hydrobromide)]
[1]; [19]
  Difference: −0.09
[1]; [20]
  Cholesterol-free: 1.404
[1]; [21]
  Complete: 1.311
[2]; [10]
  Cholesterol-free media + simvastatin (0.04 μM): 0.9531
[2]; [11]
  Complete Media: 0.9512
[2]; [22]
  Difference: 0.00

## Rasagiline (mesylate)
[1]; [23]
  Difference: −0.16
[1]; [20]
  Cholesterol-free: 0.8816
[1]; [21]
  Complete: 0.7256
[2]; [24]
  Cholesterol-free media + simvastatin (0.04 μM): 1.319
[2]; [21]
  Complete Media: 1.208
[2]; [18]
  Difference: −0.11

## CN(C)CCC=C1c2ccccc2C=Cc2ccccc21 [Cyclobenzaprine (hydrochloride)]
[1]; [3]
  Cholesterol-free: 1.08
[1]; [4]
  Complete: 1.26
[1]; [5]
  Difference: 0.18
[2]; [24]
  Cholesterol-free media + simvastatin (0.04 μM): 1.036
[2]; [21]
  Complete Media: 1.3
[2]; [8]
  Difference: 0.26

## C[C@]12C=CC(=O)C=C1CC[C@@H]1[C@@H]2C(=O)C[C@@]2(C)[C@H]1CC[C@]2(O)C(=O)CO [Prednisone]
[1]; [13]
  Difference: −0.52
[1]; [14]
  Cholesterol-free: 1.522
[1]; [15]
  Complete: 1.002
[2]; [6]
  Cholesterol-free media + simvastatin (0.04 μM): 0.9598
[2]; [7]
  Complete Media: 1.028
[2]; [8]
  Difference: 0.07

## NCCc1c[nH]cn1.O=P(O)(O)O [Histamine (phosphate)]
[1]; [9]
  Difference: −0.23
[1]; [25]
  Cholesterol-free: 1.032
[1]; NCI-H292 cells, complete media
  Complete: 0.8034
[2]; [10]
  Cholesterol-free media + simvastatin (0.04 μM): 1.025
[2]; [11]
  Complete Media: 1.021
[2]; [12]
  Difference: 0.00

## COc1ccccc1OCC(O)COC(N)=O (centres unmarked) [Methocarbamol]
[1]; [9]
  Difference: −0.29
[1]; [25]
  Cholesterol-free: 1.357
[1]; NCI-H292 cells, complete media
  Complete: 1.063
[2]; [26]
  Cholesterol-free media + simvastatin (0.04 μM): 1.33
[2]; [27]
  Complete Media: 0.8727
[2]; [18]
  Difference: −0.46

## C[C@H]1C[C@H]2[C@@H]3CCC4=CC(=O)C=C[C@]4(C)[C@@]3(Cl)[C@@H](O)C[C@]2(C)[C@@]1(O)C(=O)CO [Beclometasone]
[1]; [19]
  Difference: −0.04
[1]; [3]
  Cholesterol-free: 1.244
[1]; [4]
  Complete: 1.205
[2]; [28]
  Cholesterol-free media + simvastatin (0.04 μM): 0.7122
[2]; [29]
  Complete Media: 0.7656
[2]; [30]
  Difference: 0.05

## CC(=O)N(CC(O)CN(C(C)=O)c1c(I)c(C(=O)NCC(O)CO)c(I)c(C(=O)NCC(O)CO)c1I)c1c(I)c(C(=O)NCC(O)CO)c(I)c(C(=O)NCC(O)CO)c1I (centres unmarked) [Iodixanol]
[1]; [3]
  Cholesterol-free: 0.9782
[1]; [4]
  Complete: 1.054
[1]; [5]
  Difference: 0.08
[2]; [10]
  Cholesterol-free media + simvastatin (0.04 μM): 1.197
[2]; [11]
  Complete Media: 1.164
[2]; [12]
  Difference: −0.03

## CC(C)(Sc1cc(C(C)(C)C)c(O)c(C(C)(C)C)c1)Sc1cc(C(C)(C)C)c(O)c(C(C)(C)C)c1 [Probucol]
[1]; [13]
  Difference: −0.87
[1]; [14]
  Cholesterol-free: 1.75
[1]; [15]
  Complete: 0.8825
[2]; [16]
  Cholesterol-free media + simvastatin (0.04 μM): 1.293
[2]; [17]
  Complete Media: 1.087
[2]; [18]
  Difference: −0.21

## CCN(C)C(=O)Oc1cccc([C@H](C)N(C)C)c1 [Rivastigmine]
[1]; [19]
  Difference: −0.61
[1]; [14]
  Cholesterol-free: 1.742
[1]; [15]
  Complete: 1.133
[2]; [28]
  Cholesterol-free media + simvastatin (0.04 μM): 1.229
[2]; [29]
  Complete Media: 1.345
[2]; [30]
  Difference: 0.12

## CCC(=O)O[C@]1(C(C)=O)CC[C@H]2[C@@H]3CCC4=CC(=O)C=C[C@]4(C)[C@H]3[C@@H](O)C[C@@]21C [Deprodone propionate]
[1]; [3]
  Cholesterol-free: 0.6965
[1]; [4]
  Complete: 0.786
[1]; [5]
  Difference: 0.09
[2]; [6]
  Cholesterol-free media + simvastatin (0.04 μM): 0.6417
[2]; [7]
  Complete Media: 0.6907
[2]; [8]
  Difference: 0.05

## Cc1cccc(C(C)c2cnc[nH]2)c1C (centres unmarked) [Medetomidine]
[1]; [23]
  Difference: −0.10
[1]; [20]
  Cholesterol-free: 1.034
[1]; [21]
  Complete: 0.9342
[2]; [26]
  Cholesterol-free media + simvastatin (0.04 μM): 1.094
[2]; [27]
  Complete Media: 0.8138
[2]; [18]
  Difference: −0.28

## CC(C)NCC(O)COc1cccc2[nH]ccc12 (centres unmarked) [Pindolol]
[1]; [3]
  Cholesterol-free: 0.8852
[1]; [4]
  Complete: 0.973
[1]; [5]
  Difference: 0.09
[2]; [16]
  Cholesterol-free media + simvastatin (0.04 μM): 1.032
[2]; [17]
  Complete Media: 0.7777
[2]; [18]
  Difference: −0.25

## C=CC(=O)N1CCC[C@@H](n2nc(-c3ccc(Oc4ccccc4)cc3)c3c(N)ncnc32)C1 (racemic) [Ibrutinib (Racemate)]
[1]; [25]
  Cholesterol-free: 1.242
[1]; NCI-H292 cells, complete media
  Complete: 0.9233
[1]; complete vs cholesterol-free media, greater than 0 enhanced anti-cancer activity, about 0 neutral, below 0 antagonists
  Difference: −0.32
[2]; [10]
  Cholesterol-free media + simvastatin (0.04 μM): 0.346
[2]; [11]
  Complete Media: 0.2858
[2]; [12]
  Difference: −0.06

## Dimemorfan (phosphate)
[1]; [19]
  Difference: −0.08
[1]; [20]
  Cholesterol-free: 0.9351
[1]; [21]
  Complete: 0.8552
[2]; [10]
  Cholesterol-free media + simvastatin (0.04 μM): 0.9385
[2]; [11]
  Complete Media: 0.8687
[2]; [22]
  Difference: −0.07

## NCCCC[C@H](NC(=O)[C@@H]1CCCN1C(=O)[C@@H]1CSSC[C@H](N)C(=O)N[C@@H](Cc2ccccc2)C(=O)N[C@@H](Cc2ccccc2)C(=O)N[C@@H](CCC(N)=O)C(=O)N[C@@H](CC(N)=O)C(=O)N1)C(=O)NCC(N)=O [Felypressin] (HELM PEPTIDE1{C.F.F.Q.N.C.P.K.G.[am]}$PEPTIDE1,PEPTIDE1,1:R3-6:R3$$$V2.0)
[1]
  Cholesterol-free: 0.991
  Complete: 0.8009
  Difference: −0.19
[2]
  Cholesterol-free media + simvastatin (0.04 μM): 1.091
  Complete Media: 0.9792
  Difference: −0.11

## Clc1ccc(Cn2c(CN3CCCC3)nc3ccccc32)cc1 [Clemizole (hydrochloride)]
[1]; [23]
  Difference: −0.11
[1]; [20]
  Cholesterol-free: 1.125
[1]; [21]
  Complete: 1.013
[2]; [6]
  Cholesterol-free media + simvastatin (0.04 μM): 0.9553
[2]; [7]
  Complete Media: 1.07
[2]; [8]
  Difference: 0.11

## CN(C)/N=N/c1[nH]cnc1C(N)=O [Dacarbazine]
[1]; [23]
  Difference: −0.11
[1]; [20]
  Cholesterol-free: 1.191
[1]; [21]
  Complete: 1.077
[2]; [24]
  Cholesterol-free media + simvastatin (0.04 μM): 1.089
[2]; [21]
  Complete Media: 0.9656
[2]; [18]
  Difference: −0.12

## CC(C)NCC(O)c1ccc(O)c(O)c1 (centres unmarked) [Isoprenaline (hydrochloride)]
[1]; [13]
  Difference: −0.50
[1]; [14]
  Cholesterol-free: 1.676
[2]; [24]
  Cholesterol-free media + simvastatin (0.04 μM): 1.496
[2]; [21]
  Complete Media: 1.355
[2]; [18]
  Difference: −0.14
